The values below come from patent publication US20060189698A1, “Treatment of interstitial cystitis” (priority 2005, published 2006).

Counter-ions that a name gives are not always drawn.

This test deals with women with severe chronic bladder pain. Nature of the test: Treatment of pelvic pain of bladder origin with dextroamphetamine sulfate (two case reports). The format is in vivo, human. The note with it: for effect of earlier conventional therapy on bladder pain (patient's claim): before dextroamphetamine sulfate. An excerpt: Treatment of Pelvic Pain of Bladder Origin with Dextroamphetamine Sulfate.
Two women with severe chronic bladder pain unresponsive to conventional therapy were offered a novel therapy with dextroamphetamine sulfate. In the first patient, the bladder pain started […] in an intermittent manner for six months and then it became daily. The pain was described as a constant feeling of urgency and pain from the urethra to the bladder on walking. They scored an 18 on the pelvic pain and urging/frequency PST. A laparoscopy […] found minimal endometriosis. A cystoscopy was negative as were repeated urine cultures. […] They failed a water load test excreting only 1000 mL urine after standing 4 hours after drinking 1500 mL.
In the second patient, the pain also began intermittently for six months […]. The pain then began occurring daily and was worse with intercourse and for three days premenstrually. The pain was described as a constant feeling of pressure in the bladder with intense pain after urination. Urine cultures were negative and empirical antibiotics provided no relief. They also failed the water load test.
Dextroamphetamine sulfate spansules (10 mg) were given twice daily to the first patient and once daily to the second patient.

Setting [1] is: first patient, spansules 10 mg twice daily.
The mark [2] stands for this setting: second patient, spansules 10 mg once daily.

For `CCN(CC)CC#CCOC(=O)C(O)(c1ccccc1)C1CCCCC1` (centres unmarked) [ditropan], for the setting “first patient”, the “effect of earlier conventional therapy on bladder pain (patient's claim)” value was “made it worse”.
On to `C[C@H](N)Cc1ccccc1` [Dextroamphetamine sulfate, dextroamphetamine sulfate], for which, for the setting “first patient, after 1.5 years on medication”, the “symptom status after being weaned off the drug” value is listed as “remained symptom free for six months”. Also, under setting [1], the bladder pain response result is recorded as “pain completely disappeared within two days” and the “time pain free while remaining on medication” value amounted to 1.5 years. The “symptoms on interruption and resumption of medication” value (second patient, forgot their pills on a short trip) is “symptoms returned immediately but then disappeared immediately upon resumption of medication”. Under setting [2], the bladder pain response entry was “pain decreased immediately and gradually improved daily for one week when it completely disappeared”; the “time remaining pain free” value is given as “remained pain free for four months”.
On to `CC(C)(C)NC(=O)[C@H]1CC[C@H]2[C@@H]3CC[C@H]4NC(=O)C=C[C@]4(C)[C@H]3CC[C@]12C` [finasteride], for which, for the setting “first patient”, the “effect of earlier conventional therapy on bladder pain (patient's claim)” value is “made it worse”.
